Results as given in US4031218A, “7-(2,3-Dihydroxypropyl-1,3-di-n-propylxanthine and a pharmaceutical composition containing same useful as a bronchial muscle relaxant” (Mallinckrodt, Inc., priority 1976, dated 1977).
Converted amounts (≈) assume the structure as drawn.

What was measured:
[1] = Kattus et al. 1951; cited from earlier work
[2] = prior art statement; cited from earlier work
[3] = system: dogs; settings: dog, in vivo, iv
Protocol: Acute Intravenous Evaluation in Dogs
Compounds were tested in two dogs each. Animals were initially hydrated with 30 ml/kg of water, orally; then anesthetized with pentobarbital sodium, 30-35 mg/kg i.v. One femoral vein was cannulated and a constant intravenous infusion of warm saline (3 ml/min.) was begun and continued throughout the experiment. The contralateral femoral vein was also cannulated for intravenous drug administration. Urine was directly collected from bilateral ureter cannulae. After a 20-minute control collection period, the first dose of the appropriate compound was injected and urine was collected at 20-minute intervals for a period of one hour. This procedure was repeated for two additional doses of the same compound. Urine volume, pH, and sodium and potassium levels were determined for each 20-minute collection period and sums were obtained for the one-hour period after each dose. Test results, reported as successive changes in each parameter, were compared accordingly.

[4] = Solubility
[5] = system: human bronchodilator; assay: Estimated human bronchodilator dose equivalent to recommended theophylline dose; settings: based on recommended theophylline dose and relative bronchodilator activities
Text: Experimental results are summarized in Table I wherein pharmacologic and toxicologic activities relative to that of theophylline are expressed on a molar basis.
^a - Dose: Based on the recommended dose for theophylline and the
relative activities in the bronchodilator experiments.

[6] = Intravenous emetic study in dogs (ED50); assay type: in vivo, dog; settings: dog, in vivo, iv; read-out: ED50 (median emetic dose), I.V. Dogs
Protocol: (§1) Twelve adult mongrel dogs of either sex were employed to determine the median emetic dose (ED50) of all five experimental compounds after intravenous administration. […] Onset, frequency, and duration of emetic episodes were also recorded. The dogs were not fasted, were allowed at least 2 days rest between doses, and no animal received the same compound twice in succession. […] ED50 values were calculated according to the method of Litchfield and Wilcoxon (1949).

[7] = system: dogs; assay: Intravenous emetic study in dogs (ED50); assay type: in vivo, dog; settings: estimated at HBD
Protocol: as §1

[8] = system: dogs; settings: dog, in vivo, iv; remark: listed apart in the source
Protocol: Intravenous Cardiovascular Evaluation in Dogs
Thirteen adult mongrel dogs of either sex ranging in weight from 16.7 to 25.0 kg were employed to compare the overall intravenous cardiovascular activity of the five experimental compounds.
Dogs were anesthetized with pentobarbital sodium, 30-35 mg/kg i.v., fitted with a cuffed endotracheal tube, and ventilated with a Harvard Animal Respiratory Pump. A femoral vein was cannulated for i.v. drug administration. The left common carotid artery was cannulated and the cannula tip advanced into the aortic arch. A median sternotomy was performed and appropriately sized electromagnetic blood flow transducers (Biotronex) were placed around the ascending aorta and left anterior descending coronary artery. These procedures allowed continuous recording or calculation of the following parameters:
a. Mean Arterial Pressure (MAP); from the aortic cannula.
b. Heart Rate (HR); electronically from pulsatile ascending aortic flow.
c. Cardiac Output (CO); mean ascending aortic flow.
d. Myocardial Contractile Force (MCF); dQ/dt, the first derivative of maximum aortic flow rate, also known as peak aortic flow acceleration.
e. Stroke Volume (SV); quotient of CO/HR.
f. Cardiac Work (CW); product of CO X MAP.
g. Total Peripheral Resistance (TPR); quotient of MAP/CO.
h. Coronary Flow (CF); mean left anterior descending (LAD) coronary flow.
i. Coronary Resistance (CR); quotient of MAP/CF.
Logarithmically increasing doses of the appropriate compound were injected at 20-minute intervals. Responses were measured at 1, 2, 5, 10, 15 and 20 minutes after each dose and the average response during that period was calculated. Theophylline (aminophylline), dyphylline (II), and Compound V were employed in both 20 and 80 mg/ml concentrations in distilled water. Compounds III and IV were used in 10 and 30 mg/ml concentrations respectively.

[9] = Summary of relative molar activities (means and therapeutic efficacy); settings: mean bronchodilator (therapeutic) activity divided by mean acute toxic and side effect activity
Text: ^g - Mean bronchodilator (therapeutic) activity divided by mean acute

[10] = system: dogs; assay: Oral minimum emetic dose in dogs; assay type: in vivo, dog
Protocol: 2. Oral Minimum Emetic Dose
The minimum dose of each compound which causes emesis after oral administration was estimated in a group of five adult mongrel dogs of either sex. Logarithmically increasing or decreasing (depending upon response) doses of each compound were administered orally via a flexible stomach tube. The compounds were dissolved in distilled water in concentrations to allow a constant volume dose of 5 ml/kg. […] Onset, frequency, and duration of emetic episodes as well as signs of CNS stimulation were also recorded.

CCn1c(=O)c2[nH]cnc2n(CC)c1=O [1,3-diethyl, 1,3-diethyl xanthine]
Diuretic and emetic properties in words (prior art) [1]: extremely potent

Cn1c(=O)c2[nH]cnc2n(C)c1=O [Compound I, 1,3-dimethylxanthine]
Water solubility in words (prior art) [2]: lack of water solubility | Diuretic Activity, I.V. Dogs [3]: Mild | solubility ([4]; water): 8000 µg/mL (≈ 44.4 mM) | Solubility in words ([4]; water solubility, qualitative): poor solubility | Estimated Human Bronchodilator Dose (HBD), per 70 kg [5]: 200 mg/70 kg | Estimated Human Bronchodilator Dose (HBD), per kg [5]: 2.9 mg/kg | ED50 [6]: 58 mg/kg | Emetic effect, I.V. Dogs [7]: None | CF (coronary flow) change [8]: +21 %Δ | CO (cardiac output) change [8]: +7 %Δ | CW (cardiac work) change [8]: -5 %Δ | Cardiovascular effects (Mean) [8]: 12 | HR (heart rate) change [8]: +11 ΔBPM | MAP (mean arterial pressure) change [8]: -12 ΔmmHg | MCF (myocardial contractile force) change [8]: +17 %Δ | TPR (total peripheral resistance) change [8]: -12 %Δ | Therapeutic Efficacy [9]: 1.00 | MED (minimum emetic dose), P.O. Dogs [10]: 128 mg/kg | Emetic effect, P.O. Dogs ([10]; estimated at HBD): None

CCCn1c(=O)c2[nH]cnc2n(CCC)c1=O [1,3-dipropyl, 1,3-dipropyl xanthine]
Diuretic and emetic properties in words (prior art) [1]: extremely potent

CCCCn1c(=O)c2[nH]cnc2n(CCCC)c1=O [1,3-dibutyl xanthine]
Diuretic and emetic properties in words (prior art) [1]: extremely potent
